Results: US8367666B2 (priority 2004, dated 2013)
pIC50, pKi: −log10 of the molar value. Like-named read-outs stand apart in the source and are kept apart here.

Experiments:
[1] = tested on: scratching action induced by Compound 48/80; assay: Anti-pruritic activity test by application (Compound 48/80 scratching); assay type: in vivo, mouse (Crj:CD-1 (ICR)); conditions: topical, read-out: Itching inhibition ratio % (Concentration %)
Method: 1) Preparation of the compound and the reagent: The compound being tested was dissolved in acetone (SIGMA). Compound 48/80 (SIGMA) was dissolved in physiological saline (m by Otsuka Pharmaceutical Co., Ltd.) so as to be 60 μg/mL.
2) Animals: Female Crj: CD-1 (ICR) mice of 6 to 10 age in week (Japan Charles Liver) were used as laboratory animals. The animals were fed in the barrier breeding room where […] in room temperature, 30 to 70% in humidity, and the light and shade condition existed every 12 hours and feed (CE-2: Japan Crea) and the drinking water were freely taken. The hair of dorsa (from the cervical region of the back to the center of the back) of the animals were cut with a hair clipper two days or more before the anti-pruritic activity is evaluated, those with no wound, rubefaction, and thickening of the skin on the dehaired part were chosen and supplied to the experiment on the day of the evaluation. 3) Evaluation procedures: The acetone solution of the compound being tested was applied by 50 μL on the dehaired parts of the mice with a pipeter. On the mice of the control group, 50 μL of acetone was applied. The 15 minutes later, 50 μL (corresponding to 3 μg) of Compound 48/80 solution was injected intradermally in the compound applied parts with the use of a injector (Terumo Corporation), the mice were individually put in five observation cages made of acrylate resin at once, and the scratching action (action of scratching the injection part by the hind leg) frequency during 30 minutes was measured. The evaluation was carried out in one group of 5 to 7 mice. 4) Data processing: The experiment results were shown by the mean values. The test of the significant difference of the compound applying group to the control group was conducted with Welch's t-test, and p<0.05 was assumed to be significant.

CB1 receptor [2] = target: T1, CB1 receptor (Homo sapiens, UniProt P21554); assay: Human cannabinoid receptor bonding inhibition test ([3H]CP55940), CB1; assay type: binding; set-up: expressed in transfected cells; membrane fraction; conditions: for Ki: [3H]CP55940 0.5 nM, membrane preparation of CHO cells expressing CB1, Ki calculated from IC50, read-out: Binding activity (nM) CB1
T1 sequence (P21554 whole entry): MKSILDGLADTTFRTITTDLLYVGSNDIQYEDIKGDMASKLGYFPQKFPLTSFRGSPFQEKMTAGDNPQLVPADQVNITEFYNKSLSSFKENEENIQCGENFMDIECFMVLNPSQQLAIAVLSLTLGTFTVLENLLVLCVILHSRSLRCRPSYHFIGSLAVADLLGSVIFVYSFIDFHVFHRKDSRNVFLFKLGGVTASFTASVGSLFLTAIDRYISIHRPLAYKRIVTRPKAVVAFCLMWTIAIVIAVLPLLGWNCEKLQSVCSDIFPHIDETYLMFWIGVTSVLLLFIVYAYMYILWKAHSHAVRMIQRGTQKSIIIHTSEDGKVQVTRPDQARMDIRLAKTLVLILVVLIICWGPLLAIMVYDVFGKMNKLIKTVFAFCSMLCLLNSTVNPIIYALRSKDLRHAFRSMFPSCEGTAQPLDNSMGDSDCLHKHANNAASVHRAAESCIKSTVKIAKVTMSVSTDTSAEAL

CB2 receptor [3] = target: T2, CB2 receptor (Homo sapiens, UniProt P34972); assay: Human cannabinoid receptor bonding inhibition test ([3H]CP55940), CB2; assay type: binding; set-up: expressed in transfected cells; membrane fraction; conditions: for Ki: [3H]CP55940 0.5 nM, membrane preparation of CHO cells expressing CB2, Ki calculated from IC50, read-out: Binding activity (nM) CB2
T2 sequence (P34972 whole entry): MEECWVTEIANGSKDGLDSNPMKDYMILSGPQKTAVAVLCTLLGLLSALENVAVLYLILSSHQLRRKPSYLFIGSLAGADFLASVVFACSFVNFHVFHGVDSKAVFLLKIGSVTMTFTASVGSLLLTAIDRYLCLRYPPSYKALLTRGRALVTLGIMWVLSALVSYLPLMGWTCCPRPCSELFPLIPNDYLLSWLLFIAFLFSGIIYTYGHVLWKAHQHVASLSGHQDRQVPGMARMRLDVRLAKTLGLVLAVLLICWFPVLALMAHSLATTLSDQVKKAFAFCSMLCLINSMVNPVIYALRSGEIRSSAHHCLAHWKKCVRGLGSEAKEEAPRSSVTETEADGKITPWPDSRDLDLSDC

CB1 receptor [4] = target: T1, CB1 receptor; assay: cAMP formation inhibition experiment through a cannabinoid receptor (forskolin stimulation), CB1; assay type: cell-based; set-up: expressed in transfected cells; host or cells: CHO cells; conditions: for IC50: read-out: Agonist activity (nM) CB1
Method: A compound being tested was added in the CHO cell which had mad human CB1 or CB2 receptor reveal and incubated for 15 minutes, and then forskolin (the final concentration 4 μM, and manufactured by SIGMA Corp.) was added and the mixture was incubated for 20 minutes. After the reaction had been stopped by adding 1M hydrochloric acid, the amount of cAMP in the supernatant was measured with the use of Cyclic AMP kit (made by the CIS Diagnostic Corp.).

CB2 receptor [5] = target: T2, CB2 receptor; assay: cAMP formation inhibition experiment through a cannabinoid receptor (forskolin stimulation), CB2; assay type: cell-based; set-up: expressed in transfected cells; host or cells: CHO cells; conditions: for IC50: inhibition of forskolin (4 μM)-stimulated cAMP formation, CHO cells expressing human CB2, read-out: Agonist activity (nM) CB2

| Structure (SMILES) | pKi (CB1 receptor [2]) | pKi (CB2 receptor [3]) | IC50 (CB1 receptor [4]) | pIC50 (CB2 receptor [5]) | inhibition in vivo at 3 % ([1]; Mus musculus) | Ki (CB1 receptor [2]) | pIC50 (CB1 receptor [4]) | further results |
| --- | --- | --- | --- | --- | --- | --- | --- | --- |
| CC(C)(NC(=O)c1cc2c(n(CC3CCCCC3)c1=O)CCCCCC2)C(N)=O [Compound I-002] | 7.32 | 8.15 | 11 nM | 8.36 | – | – | – | inhibition in vivo at 2.5 % ([1]; Mus musculus): 68% |
| CC(C)(NC(=O)c1cc2c(n(CC3CCCCC3)c1=O)CCCCCC2)C(=O)C1CCCC(C(N)=O)N1 (centres unmarked) [Compound I-580] | 7.62 | 8.13 | 41 nM | 7.32 | 98% | – | – | – |
| O=C(NC(C(=O)O)C(F)(F)F)c1cc2c(n(CC3CCCCC3)c1=O)CCCCCC2 (centres unmarked) [Compound X-229] | – | 7.92 | – | 7.57 | – | 482 nM | 6.43 | inhibition in vivo at 0.5 % ([1]; Mus musculus): 105% |
| CCCC(CC(=O)O)NC(=O)c1cc2c(n(CC3CCCCC3)c1=O)CCCCCC2 (centres unmarked) [Compound X-66] | – | 7.04 | – | 7.30 | – | > 2000 nM | 6.26 | inhibition in vivo at 1 % ([1]; Mus musculus): 71% |
| CC(C)(CCNC(=O)c1cc2c(n(CC3CCCCC3)c1=O)CCCCCC2)C(=O)O [III-017] | – | 7.82 | – | 7.46 | 76% | 149 nM | 6.49 | – |
| COCCn1c2c(cc(C(=O)NC3(CC(=O)O)CCCC3)c1=O)CCCCCC2 [XI-035] | < 5.70 | 7.51 | > 2000 nM | 7.33 | – | – | – | inhibition in vivo at 0.5 % ([1]; Mus musculus): 69% |
| CC[C@@H](C)[C@H](NC(=O)c1cc(C)c(C)n(CC2CCCCC2)c1=O)C(=O)OC [Compound I-089] | > 8.70 | > 8.70 | < 2 nM | > 8.70 | – | – | – | inhibition in vivo at 0.5 % ([1]; Mus musculus): 65% |
| CCc1c(C)cc(C(=O)NC(CC)(CC)CC(=O)O)c(=O)n1Cc1ccc(F)cc1 [Compound X-216] | – | 8.48 | – | 7.52 | – | 1770 nM | < 5.70 | inhibition in vivo at 1 % ([1]; Mus musculus): 106% |
| CCCCC(CC(=O)O)NC(=O)c1cc2c(n(CC3CCCCC3)c1=O)CCCCCC2 (centres unmarked) [Compound X-67] | – | 7.02 | – | 7.40 | – | > 2000 nM | < 5.70 | inhibition in vivo at 1 % ([1]; Mus musculus): 79% |
| CCS(=O)(=O)NNC(=O)C(C)(C)NC(=O)c1cc2c(n(CC3CCCCC3)c1=O)CCCCCC2 [Compound I-596] | – | 7.66 | – | 7.52 | 60% | 341 nM | 6.51 | – |
| COC(=O)[C@@H](NC(=O)c1cc(C)c(C)n(Cc2ccc(F)cc2)c1=O)C(C)C [Compound I-094] | > 8.70 | > 8.70 | 9 nM | > 8.70 | – | – | – | inhibition in vivo at 0.5 % ([1]; Mus musculus): 60% |
| C/C=C/C(CC(=O)O)NC(=O)c1cc2c(n(CC3CCCCC3)c1=O)CCCCCC2 (centres unmarked) [II-075] | – | 7.32 | – | 8.34 | 95% | 652 nM | 6.54 | – |
| CC(C)(NC(=O)c1cc2c(n(CC3CCCCC3)c1=O)CCCCCC2)C(=O)N1CCC(C(=O)NNS(C)(=O)=O)CC1 [Compound I-606] | 7.22 | 8.36 | 118 nM | 8.06 | – | – | – | inhibition in vivo at 1 % ([1]; Mus musculus): 86% |
| CC(C)CCn1c2c(cc(C(=O)N[C@@H](C(=O)O)c3ccccc3)c1=O)CCCCCC2 [Compound I-424] | – | 8.52 | – | 8.23 | 62% | 357 nM | < 5.70 | – |
| CCCCNC(=O)C1CCCN(C(=O)C(C)(C)NC(=O)c2cc3c(n(CC4CCCCC4)c2=O)CCCCCC3)C1 (centres unmarked) [Compound I-608] | 6.28 | 7.96 | > 2000 nM | 8.46 | 75% | – | – | – |
| CC(C)(NC(=O)c1cc2c(n(CC3CCCCC3)c1=O)CCCCCC2)C(=O)N1CCC(NS(C)(=O)=O)CC1 [Compound I-572] | – | – | 397 nM | 8.62 | – | 39 nM | – | inhibition in vivo at 1 % ([1]; Mus musculus): 97%; Ki (CB2 receptor [3]): 4.4 nM |

| Structure (SMILES) | pKi (CB1 receptor [2]) | pKi (CB2 receptor [3]) | IC50 (CB1 receptor [4]) | pIC50 (CB2 receptor [5]) | inhibition in vivo at 3 % ([1]; Mus musculus) | Ki (CB1 receptor [2]) | pIC50 (CB1 receptor [4]) | further results |
| --- | --- | --- | --- | --- | --- | --- | --- | --- |
| O=C(O)Cc1csc(NC(=O)c2cc3c(n(CC4CCCCC4)c2=O)CCCCCC3)n1 [IV-023] | – | – | – | – | – | 425 nM | – | inhibition in vivo at 3 % ([1]; applied as acetone solution 50 μL, concentration 3.0%, mouse, Compound 48/80): 116%; Ki (CB2 receptor [3]): 22 nM; IC50 (CB1 receptor [4]; inhibition of forskolin (4 μM)-stimulated cAMP formation, CHO cells expressing human CB1): 398 nM; IC50 (CB2 receptor [5]): 11 nM |
| CC(C)(NC(=O)c1cc2c(n(CC3CCCCC3)c1=O)CCCCCC2)C(=O)N1CCC(C(=O)N2CCOCC2)CC1 [Compound I-617] | 6.53 | 8.18 | 79 nM | 7.74 | – | – | – | inhibition in vivo at 1 % ([1]; Mus musculus): 96% |
| O=C(N[C@H](C(=O)O)c1ccccc1)c1cc2c(n(CC3CCCCC3)c1=O)CCCCCC2 [Compound I-402] | – | > 8.70 | – | – | 59% | 34 nM | – | IC50 (CB2 receptor [5]): 5.7 nM |
| CC(C)C[C@@H](CC(=O)O)NC(=O)c1cc2c(n(Cc3ccc(F)cc3)c1=O)CCCCCC2 [II-078] | – | 7.57 | – | > 8.70 | 94% | 1450 nM | 6.60 | – |
| CC(C)NC(=O)NC1CCN(C(=O)C(C)(C)NC(=O)c2cc3c(n(CC4CCCCC4)c2=O)CCCCCC3)CC1 [Compound I-599] | 7.43 | 8.40 | 37 nM | 7.89 | – | – | – | inhibition in vivo at 0.5 % ([1]; Mus musculus): 67% |
| CC(C)(NC(=O)c1cc2c(n(CC3CCCCC3)c1=O)CCCCCC2)C(=O)N1CCC(C(=O)N2CCCCC2)CC1 [Compound I-601] | 7.33 | 8.41 | 186 nM | 8.20 | – | – | – | inhibition in vivo at 1 % ([1]; Mus musculus): 67% |
| CNC(=O)CNC(=O)C(C)(C)NC(=O)c1cc2c(n(CC3CCCCC3)c1=O)CCCCCC2 [Compound I-590] | 7.18 | 7.80 | 51 nM | 8.62 | 75% | – | – | – |
| CC(C)C[C@@H](CC(=O)O)NC(=O)c1cc2c(n(CC3CCCCC3)c1=O)CCCCCC2 [II-069] | 7.06 | 8.47 | 5.6 nM | 8.68 | 84% | – | – | – |
| O=C(O)CC(NC(=O)c1cc2c(n(Cc3ccc(F)cc3)c1=O)CCCCCC2)C(F)(F)F (centres unmarked) [II-067] | – | 7.89 | – | 8.31 | 68% | > 2000 nM | 6.16 | – |
| COCOC(=O)C(C)(C)NC(=O)c1cc2c(n(CC3CCCCC3)c1=O)CCCCCC2 [Compound I-306] | > 8.70 | > 8.70 | < 2 nM | – | – | – | – | inhibition in vivo at 0.5 % ([1]; Mus musculus): 83% |
| CCOC(=O)C1CCCCC1NC(=O)c1cc2c(n(CCCNC(C)=O)c1=O)CCCCCC2 (centres unmarked) [II-031] | < 5.70 | 8.60 | – | 8.00 | – | – | – | inhibition in vivo at 2 % ([1]; Mus musculus): 55% |
| O=C(NC(C(=O)O)c1ccco1)c1cc2c(n(CC3CCCCC3)c1=O)CCCCCC2 (centres unmarked) [Compound I-530] | 8.15 | > 8.70 | 305 nM | – | – | – | – | inhibition in vivo at 2 % ([1]; Mus musculus): 74% |
| COC(=O)C(C)(C)NC(=O)c1cc2c(n(Cc3ccc(F)cc3)c1=O)CCCCCC2 [Compound I-255] | 8.68 | > 8.70 | < 2 nM | – | – | – | – | inhibition in vivo at 1.5 % ([1]; Mus musculus): 93% |
| CCOC(=O)C(C)(C)NC(=O)c1cc2c(n(CC3CCCCC3)c1=O)CCCCCC2 [Compound I-300] | > 8.70 | > 8.70 | < 2 nM | – | – | – | – | inhibition in vivo at 0.5 % ([1]; Mus musculus): 41% |
| CSC(=O)C(C)(C)NC(=O)c1cc2c(n(CC3CCCCC3)c1=O)CCCCCC2 [Compound I-001, 2-[(1-cyclohexylmethyl-2-oxo-1,2,5,6,7,8,9,10-octahydro-cycloocta[b]pyridine-3-carbonyl)-amino]-2-methyl-thiopropionic acid S-methyl ester] | > 8.70 | > 8.70 | < 2 nM | – | – | – | – | inhibition in vivo at 0.5 % ([1]; Mus musculus): 53% |
| CCCCn1c2c(cc(C(=O)N[C@H](C(=O)OC)C(C)(C)C)c1=O)CCCCCC2 [Compound I-203] | > 8.70 | > 8.70 | < 2 nM | – | – | – | – | inhibition in vivo at 0.5 % ([1]; Mus musculus): 86% |
